Assay results from PubChem BioAssay (NCI).
Where “and” joins values, the source holds several entries; their conditions need not be identical. Equal entries are not always repeated.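 Step 1: Grow cells in 96-well plates. Step 2: Expose to compound for 48 hours at 5 concentrations. Step 3: Interpolate endpoints linearly; if unreached, use highest concentration. The concentration for 50% growth inhibition is given as GI50. TGI denotes the concentration required for complete inhibition of growth.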

What was measured:
Experiment in all cases: DTP human tumour cell line panel, 48 h
SNB-19 CNS = tested on: SNB-19 CNS
SW-620 colon = tested on: SW-620 colon
OVCAR-5 ovarian = tested on: OVCAR-5 ovarian
OVCAR-4 ovarian = tested on: OVCAR-4 ovarian
KM12 colon = tested on: KM12 colon
NCI-H522 lung = tested on: NCI-H522 lung
HT29 colon = tested on: HT29 colon
LOX IMVI melanoma = tested on: LOX IMVI melanoma
MOLT-4 leukemia = tested on: MOLT-4 leukemia
K-562 leukemia = tested on: K-562 leukemia

| SMILES | GI50 (SNB-19 CNS) | TGI (SNB-19 CNS) | GI50 (SW-620 colon) | TGI (SW-620 colon) [µM] | GI50 (OVCAR-5 ovarian) | TGI (OVCAR-5 ovarian) | GI50 (OVCAR-4 ovarian) | TGI (OVCAR-4 ovarian) | GI50 (KM12 colon) | TGI (KM12 colon) | GI50 (NCI-H522 lung) | TGI (NCI-H522 lung) | GI50 (HT29 colon) [µM] | TGI (HT29 colon) | GI50 (LOX IMVI melanoma) | TGI (LOX IMVI melanoma) | GI50 (MOLT-4 leukemia) | TGI (MOLT-4 leukemia) [µM] | GI50 (K-562 leukemia) | TGI (K-562 leukemia) [µM] |
| --- | --- | --- | --- | --- | --- | --- | --- | --- | --- | --- | --- | --- | --- | --- | --- | --- | --- | --- | --- | --- |
| CC(C)=CC1=C2C3=C(C(=O)C4(O)Oc5c(C)c6c7c(c5OC24C)[C@@H](C)CC[C@@H]7[C@@H](C)C[C@H]6C=C(C)C)C(C)CCC3C(C)C1 (stereo not given in full) | > 100 µM | > 100 µM | > 100 µM | > 100 | > 100 µM | > 100 µM | > 100 µM | > 100 µM | > 100 µM | > 100 µM | > 100 µM | > 100 µM | > 100 | > 100 µM | > 100 µM | > 100 µM | > 100 µM | > 100 | > 100 µM | > 100 |
| NC(N)=NS(=O)(=O)c1ccc(NCCc2c3ccccc3nc3ccccc23)cc1 |  | > 100 µM |  | > 100 |  | > 100 µM |  | 53.8 µM |  | > 100 µM |  | > 100 µM |  | > 100 µM |  | > 100 µM |  | > 100 |  | > 100 |
| COc1ccc(C2ON(c3cccc(C)n3)CC=C2C)cc1 (stereo not given) |  | > 100 µM |  | > 100 |  | > 100 µM |  | > 100 µM |  | > 100 µM |  | 54.8 µM |  | > 100 µM |  | > 100 µM |  | > 100 |  | > 100 |
| O=C1C[C@@H]2/C(=C(O)\C=C\c3ccccc3)C(=O)C=C[C@@H]2O1 | 9.03 µM | 22.6 µM | 0.485 µM | 4.94 | 1.93 µM | 3.84 µM | 3.64 µM | 13 µM | 0.505 µM | 1.82 µM | 0.206 µM | 0.615 µM | 0.844 | 2.4 µM | 0.214 µM | 0.485 µM | 1.85 µM | 5.77 | 0.449 µM | > 100 |
| Cc1cccc(C)c1NC(=O)C(=O)Nn1c(NN)nc2ccccc2c1=O |  | > 100 µM |  | > 100 |  | > 100 µM |  | > 100 µM |  | > 100 µM |  | > 100 µM |  | > 100 µM |  | > 100 µM |  | > 100 |  | > 100 |
| CC(C)CC(NC(=O)OC(C)(C)C)C(=O)Nc1ccc(Nc2nc(F)nc(-c3c4ccccc4cn3C)n2)cc1 (stereo not given) |  | > 100 µM |  | > 54.4 |  | > 100 µM |  | > 100 µM |  | 42.3 µM |  | > 100 µM |  | 54.9 µM |  | > 100 µM |  | > 100 |  | > 100 |
| COc1cc(Nc2ncc(F)c(Nc3ccc4c(n3)N(COP(=O)(O)O)C(=O)C(C)(C)O4)n2)cc(OC)c1OC | 2.68 µM and 2.84 µM | 21.3 µM and > 10 µM | 3.6 µM and 3.98 µM | > 84.4 | 1.7 µM and 1.38 µM | 9.62 µM and > 10 µM | 1.69 µM and 1.74 µM | 6.31 µM and 6.78 µM | 0.498 µM and 0.409 µM | 15.4 µM and > 10 µM | 1.53 µM and 1.24 µM | 7.02 µM and 7.1 µM | 1.66 | 10.7 µM and > 10 µM | 1.38 µM and 1.09 µM | 2.99 µM and 2.46 µM | 3.54 µM and 3.05 µM | > 62 | 5.3 µM and 3.41 µM | > 100 |
| COC(=O)c1c2cccccc-2c(Cc2c3cccccc-3c(C(=O)OC)c2O)c1O |  | > 100 µM |  | > 100 |  | > 100 µM |  | > 100 µM |  | > 100 µM |  | > 100 µM |  | > 100 µM |  | > 100 µM |  | > 100 |  | > 100 |
| CCNC(=O)O[C@H]1CN[C@H](C#Cc2cc3ncnc(Nc4ccc(OCc5cccc(F)c5)c(Cl)c4)c3s2)C1 | 16.2 µM | > 25 µM | 12 µM | > 25 | 8.98 µM | > 25 µM | 9.94 µM | > 25 µM | 6.59 µM | > 23.1 µM | 0.371 µM | 5.91 µM | 9.47 | > 25 µM | 8.12 µM | > 25 µM | 4.58 µM | > 25 | 9.45 µM | > 25 |
| C[N+]1=C(/C=C\C=C\c2ccccc2)C(C)(C)c2ccccc21 | 2.79 µM | 10.8 µM | 1.38 µM | 4.08 | 3.88 µM | 13.3 µM | 2.69 µM | 13.8 µM | 3.15 µM | 10.8 µM | 0.863 µM | 2.9 µM | 2.6 | 9.09 µM | 1.31 µM | 2.7 µM | 2.13 µM | 6.44 | 0.442 µM | 7.28 |
| CN(Cc1cc(C(C)(C)C)cc(Br)c1O)Cc1cc(C(C)(C)C)cc(Br)c1O |  | 19.3 µM |  | 16.9 |  | 18.5 µM |  | 17.8 µM |  | 12.9 µM |  | 7.33 µM |  | 15.9 µM |  | 14.8 µM |  | 19.9 |  | 14 |
| C=C1CC2(OC1=O)C(=O)Nc1ccccc12 (stereo not given) | 32.9 µM | > 100 µM | 1.38 µM | 3.22 | 5.83 µM | 19.4 µM | 1.5 µM | 3.37 µM | 10.4 µM | 27.2 µM | 0.542 µM | 2.03 µM | 3.03 | 11 µM | 1.56 µM | 3.03 µM | 2 µM | 5.98 | 1.88 µM | 10 |
| O=C1C(=Cc2c(O)cc(O)cc2O)C(=O)c2ccccc21 |  | > 56.9 µM |  | > 56.5 |  | > 57.7 µM |  | > 72.7 µM |  | > 51.4 µM |  | > 60.3 µM |  | > 56.4 µM |  | 29.2 µM |  | > 81.6 |  | > 93.2 |
| COc1cc(-c2nc(SCCC(C)C)nc(Nc3ccc(S(N)(=O)=O)cc3)c2C#N)cc(OC)c1OC | 5.38 µM | > 100 µM | 3.08 µM | > 100 | 3.84 µM | > 100 µM | 3.45 µM | > 100 µM | 2.2 µM | 5.56 µM | 3.52 µM | > 100 µM | 2.25 | 5.13 µM | 1.91 µM | 4.41 µM | 2.39 µM | > 100 | 2.73 µM | > 100 |
| Cc1cc2c([nH]c3ccccc32)c2c1OC(C)(C)C1C3CC(C)(C)Oc4c(C)cc5c6ccccc6n(c5c43)C21 (stereo not given) |  | > 100 µM |  | > 100 |  | > 100 µM |  | > 100 µM |  | > 100 µM |  | > 100 µM |  | > 100 µM |  | > 100 µM |  | > 100 |  | > 100 |
